Drawing on patent publication US7960393B2, “Pyrimidine derivatives useful for the treatment of diseases mediated by CRTH2” (Actimis Pharmaceuticals, Inc., priority 2002, dated 2011), this text covers IC50 and melting point for 36 compounds.

Bounds are passed on as bounds.

In one series the target is T1, human CRTH2 (Homo sapiens, UniProt Q9Y5Y4).
T1 construct: expressed in transfected cells; host or cells: L1.2 cells, pEAK expression vector, puromycin-selected
T1 sequence (Q9Y5Y4 1-395): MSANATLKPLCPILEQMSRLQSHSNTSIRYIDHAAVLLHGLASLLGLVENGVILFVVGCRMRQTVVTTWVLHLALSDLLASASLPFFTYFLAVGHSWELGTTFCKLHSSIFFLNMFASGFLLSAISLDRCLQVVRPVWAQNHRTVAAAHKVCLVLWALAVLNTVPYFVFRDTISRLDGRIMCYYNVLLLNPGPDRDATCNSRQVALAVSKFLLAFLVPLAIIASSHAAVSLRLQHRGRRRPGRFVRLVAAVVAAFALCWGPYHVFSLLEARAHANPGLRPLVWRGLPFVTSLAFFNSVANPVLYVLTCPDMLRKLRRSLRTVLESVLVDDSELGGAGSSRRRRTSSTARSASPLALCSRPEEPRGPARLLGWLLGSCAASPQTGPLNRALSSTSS
The experiment in a line: Measurement of Ca2+ mobilization in the human CRTH2-transfected L1.2 cell line (Assay 1). To be noted: PGD2-induced Ca2+ mobilization in CRTH2-transfected L1.2 cells; compounds as yielded by solid phase synthesis, purity about 40 to 90%; read-out: Activity class. The format is cell-based. Summed up: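 Human CRTH2 was stably expressed in L1.2 cells (puromycin-selected) loaded with Fluo-3AM (1 μM final) for 60 min at room temperature. Buffer was 20 mM HEPES pH 7.6, 0.1% BSA, 1 mM probenecid in Hanks'. Cells (2×10^5/well) got compound for 5 min at RT, with fluorescence at 480 nm. IC50 bins: A ≤10 nM, B ≤100 nM, C ≤500 nM, D above; samples were solid-phase products of about 40–90% purity.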
(Calcium flux is commonly read through the fluorescence of an indicator in the cells.)

As to `COc1ccccc1/C=C/C(=O)Nc1ccc(Cc2nc(N(C)C)c(CC(=O)O)c(N3CCOCC3)n2)cc1` [Example 7-27], the melting point (usually the temperature of the solid-liquid transition) lay within 125 to 128 °C. For the same compound, the IC50 at human CRTH2 is below 10 nM.
For `CN(C)c1nc(Cc2ccc(NC(=O)c3ccc(Br)cc3)cc2)nc(Cl)c1CC(=O)O` [Example 1-42] the same measures were 100 °C and below 10 nM.
In the same order, the values of `O=C(O)Cc1cnc(Cc2ccc(NC(=O)c3ccc(F)cc3)cc2)nc1N1CCCC1` [Example 2-29] are 143 to 145 °C and below 10 nM.
Compound `CN(CC(=O)NC1CCCC1)c1nc(Cc2ccc(NC(=O)Cc3cccc(Oc4ccccc4)c3)cc2)nc(Cl)c1CC(=O)O` [Example 1-30] showed a melting point above 118 °C. The IC50 at human CRTH2 was below 10 nM.
For `CN(CC(=O)NC1CCCC1)c1nc(Cc2ccc(NC(=O)c3cccnc3)cc2)nc(Cl)c1CC(=O)O` [Example 1-4] the same measures were above 174 °C and above 500 nM.
For the compound `CN(CC(=O)NC1CCCC1)c1nc(Cc2ccc(NC(=O)Cc3ccc4c(c3)OCO4)cc2)nc(Cl)c1CC(=O)O` [Example 1-29], the melting point was above 120 °C. Moreover, the IC50 at human CRTH2 fell in the range of 100 to 500 nM.
For `CN(C)c1nc(Cc2ccc(NC(=O)/C=C/c3ccccc3)cc2)nc(N2CCCC2)c1CC(=O)O` [Example 7-11] the same measures were 151 to 153 °C and 10 to 100 nM.
In the same order, the values of `COc1ccc(C(=O)Nc2ccc(Cc3nc(Cl)c(CC(=O)O)c(N(C)CC(=O)NC4CCCC4)n3)cc2)cc1` [Example 1-20] are 104 °C and below 10 nM.
In the same order, the values of `CN(C)c1nc(Cc2ccc(NC(=O)c3ccc(Cl)c(Cl)c3)cc2)nc(N2CCOCC2)c1CC(=O)O` [Example 7-19] are 196 to 198 °C and 10 to 100 nM.
`CN(C)c1nc(Cc2ccc(NC(=O)c3ccc(Cl)cc3)cc2)nc(N2CCOCC2)c1CC(=O)O` [Example 7-18]: the melting point is 216 to 218 °C (dec.). The IC50 on human CRTH2 lay within 100 to 500 nM.
In the same order, the values of `CN(C)c1nc(Cc2ccc(NC(=O)/C=C/c3ccc(Cl)cc3)cc2)nc(N(C)C)c1CC(=O)O` [Example 7-8] are 162 °C and below 10 nM.
Regarding `CN(C)c1nc(Cc2ccc(NC(=O)c3ccc(F)cc3)cc2)nc(N2CCOCC2)c1CC(=O)O` [Example 7-30], the melting point was in the range of 197 to 198 °C. The IC50 on human CRTH2 was 100 to 500 nM.
In the same order, the values of `COc1ccc(C(=O)Nc2ccc(Cc3nc(Cl)c(CC(=O)O)c(N4CCCC4)n3)cc2)cc1[N+](=O)[O-]` [Example 1-58] are 118 °C and below 10 nM.
For `COCC(=O)Nc1ccc(Cc2ncc(CC(=O)O)c(N3CCCC3)n2)cc1` [Example 2-34] the same measures were 102 to 105 °C and above 500 nM.
For `CN(CCO)c1nc(Cc2ccc(NC(=O)c3ccc4ccccc4c3)cc2)nc(Cl)c1CC(=O)O` [Example 1-66], the melting point came to 140 °C. Also, the IC50 at human CRTH2 is below 10 nM.
Compound `O=C(O)Cc1c(Cl)nc(Cc2ccc(NC(=O)c3ccc([N+](=O)[O-])cc3)cc2)nc1N1CCCC1` [Example 1-53] gave a melting point of 134 °C. Moreover, the IC50 on human CRTH2 lay within 10 to 100 nM.
For `CN(CC(=O)NC1CCCC1)c1nc(Cc2ccc(NS(=O)(=O)c3ccc4ccccc4c3)cc2)nc(Cl)c1CC(=O)O` [Example 1-23] the same measures were 116 °C and above 500 nM.
As to `CC(C)Oc1ccc(C(=O)Nc2ccc(Cc3nc(Cl)c(CC(=O)O)c(N4CCCC4)n3)cc2)cc1` [Example 1-56], the melting point was determined as 156 °C. On human CRTH2, the IC50 was below 10 nM.
In the same order, the values of `CN(C)c1nc(Cc2ccc(NC(=O)c3ccc4ccccc4n3)cc2)nc(N2CCOCC2)c1CC(=O)O` [Example 7-17] are 205 to 207 °C and above 500 nM.
In the case of `CCCCCC(=O)Nc1ccc(Cc2nc(Cl)c(CC(=O)O)c(N(C)CC(=O)NC3CCCC3)n2)cc1` [Example 1-12], the melting point is above 100 °C. Further, on human CRTH2, the IC50 lay in the range of 100 to 500 nM.
In the same order, the values of `CN(C)c1nc(Cc2ccc(NC(=O)/C=C/c3ccc(Cl)cc3)cc2)ncc1CC(=O)O` [Example 2-11] are 136 to 140 °C and below 10 nM.
For `CC(c1ccc(NC(=O)c2ccc(F)cc2)cc1)c1ncc(CC(=O)O)c(N(C)C)n1` (stereo not drawn) [Example 2-26] the same measures were 114 to 117 °C and below 10 nM.
For `CN(C)c1nc(Cc2ccc(NC(=O)c3ccccc3Oc3ccccc3)cc2)nc(N2CCCC2)c1CC(=O)O` [Example 7-22] the same measures were 192 to 194 °C and above 500 nM.
With `CC(c1ccc(NC(=O)c2ccc3ccccc3n2)cc1)c1ncc(CC(=O)O)c(N(C)C)n1` (stereo not drawn) [Example 2-24], the melting point is 120 to 123 °C. Moreover, on human CRTH2, the IC50 lay within 10 to 100 nM.
Compound `CN(C)c1nc(Cc2ccc(NC(=O)/C=C/c3ccccc3)cc2)nc(N2CCOCC2)c1CC(=O)O` [Example 7-21] came in with a melting point of 129 to 132 °C. The IC50 on human CRTH2 is 10 to 100 nM.
In the same order, the values of `CCc1nc(Cc2ccc(NC(=O)c3ccc4ccccc4c3)cc2)nc(N(C)C)c1CC(=O)O` [Example 8-8] are 148 to 150 °C and below 10 nM.
As to `COCc1nc(Cc2ccc(NC(=O)c3ccc4ccccc4c3)cc2)nc(N(C)C)c1CC(=O)O` [Example 8-6], the melting point lay within 128 to 131 °C. At human CRTH2, the IC50 is below 10 nM.
Turning to `CN(CC(=O)NC1CCCC1)c1nc(Cc2ccc(NC(=O)c3ccc(C#N)cc3)cc2)nc(Cl)c1CC(=O)O` [Example 1-27], the melting point amounted to 101 °C. In addition, the IC50 on human CRTH2 was below 10 nM.
For `CC(C)c1nc(Cc2ccc(NC(=O)c3ccc4ccccc4c3)cc2)nc(N(C)C)c1CC(=O)O` [Example 8-10] the same measures were 158 to 160 °C and 10 to 100 nM.
In the same order, the values of `CN(CC(=O)NC1CCCC1)c1nc(Cc2ccc(NC(=O)Cc3ccc(Oc4ccccc4)cc3)cc2)nc(Cl)c1CC(=O)O` [Example 1-31] are above 123 °C and 10 to 100 nM.
Turning to `COc1cccc(C(=O)Nc2ccc(Cc3nc(Cl)c(CC(=O)O)c(N(C)C)n3)cc2)c1` [Example 1-48], the melting point was above 75 °C. For the same compound, at human CRTH2, the IC50 is below 10 nM.
In the same order, the values of `Cc1ccc(C(=O)Nc2ccc(Cc3nc(Cl)c(CC(=O)O)c(N(C)CC(=O)NC4CCCC4)n3)cc2)cc1` [Example 1-21] are 125 °C and below 10 nM.
In the same order, the values of `O=C(O)Cc1cnc(Cc2ccc(NC(=O)c3ccc(C(F)(F)F)cc3)cc2)nc1N1CCCC1` [Example 2-30] are 156 to 158 °C (dec.) and below 10 nM.
For `CN(C)c1nc(Cc2ccc(NC(=O)c3ccc4ccccc4n3)cc2)ncc1CC(=O)O` [Example 2-9] the same measures were 136 to 144 °C and 10 to 100 nM.
The compound `CN(C)c1ccc(C(=O)Nc2ccc(Cc3nc(Cl)c(CC(=O)O)c(N(C)C)n3)cc2)cc1` [Example 1-37] came in with a melting point above 111 °C. Moreover, on human CRTH2, the IC50 is below 10 nM.
In the same order, the values of `CC(C)c1nc(Cc2ccc(NC(=O)c3ccc(C(F)(F)F)cc3)cc2)nc(N(C)C)c1CC(=O)O` [Example 8-11] are 145 to 148 °C and 10 to 100 nM.
